Legend:
[1] = test system: T. gondii RH strain tachyzoite; assay type: cell-based, Toxoplasma gondii; conditions: intracellular growth of RH strain tachyzoite in HFF
Text: The parasite strains used in this study are the following: the T. gondii type I RH strain that has lost the ability to complete cyst conversion, the T. gondii type II Prugniaud (Pru) strain that is capable of robust bradyzoite differentiation, the T. gondii type II Pru-Δhxgprt-A7 strain that expresses green fluorescent protein (GFP), the Pru-Δku80 strain [36, 37], and the RH Tg hdac3 T99A strain (previously obtained in our laboratory).
(§1) All T. gondii strains were maintained by serial passage in an HFF (Human Foreskin Fibroblasts) monolayer under tachyzoite growth conditions in Dulbecco’s modified Eagle medium (DMEM; Invitrogen) supplemented with 10% (vol/vol) fetal bovine serum (FBS; Invitrogen), 4 mM glutamine, 500 U/mL penicillin, 250 µg/mL streptomycin at 37 °C and 25 mM Hepes buffer (Invitrogen) in 5% CO2.

human cells HFF = assay type: cell-based; conditions: human foreskin fibroblasts
Procedure: as §1

[2] = test system: Ex vivo T. gondii cysts (PRU strain); assay: Cyst and bradyzoite penetration observed by fluorescence microscopy; assay type: cell-based, Toxoplasma gondii; conditions: 37 °C, exposure time 100 ms
Text: To focus on the ability of the cyclic tetrapeptide moiety to transport compounds through the cyst wall, we began our investigation by monitoring the transport of the poorly cell-permeable fluorochrome 3 (Figure 2) by optical microscopy.
To ensure that the fluorescent compound was incorporated to the parasite cell, bradyzoites were released from treated cysts (Figure 3b).
Cysts were isolated from the brains of mice chronically infected with the Pru-Δhxgprt-A7 or the Pru strains for at least 6 weeks, either using the Percoll gradient method as described previously or directly harvesting the cysts using a 10-μL pipet for the dye experimentation in order to prevent deterioration of the cyst wall for the permeability studies.
Images were acquired with a Axioplan 2 fluorescence microscope (Carl Zeiss Microimaging, Thornwood, NY, USA) and processed with the ZEN software (Zeiss).

SMILES	EC50 [1] [nM]	EC50 (human cells HFF) [nM]	Fluorescence of isolated cysts (penetration and accumulation in the cyst) ([2]; 200 nM to 3.7 µM, 3, 22 and 96 h)	Labeling of bradyzoites released from treated cysts ([2]; 3.7 µM for 3 h, bradyzoites released from the cyst)	Fluorescent labeling of isolated cysts (cyst penetration) ([2]; isolated ex vivo cysts, 1 µM, 24 h, PBS washing)
CCN(CC)c1ccc2cc(-n3cc(C[C@]4(C)NC(=O)[C@H](CCCCCC(=O)[C@@H](C)O)NC(=O)[C@H]5CCCN5C(=O)[C@H](Cc5ccccc5)NC4=O)nn3)c(=O)oc2c1 [compound 1]	43 ± 2.2	280 ± 20	increasing fluorescence was observed	clearly show labeling of these bradyzoites	–
C=CCC[C@@H]1NC(=O)[C@H]2CCCN2C(=O)[C@H](Cc2ccccc2)NC(=O)[C@](C)(Cc2cn(-c3cc4ccc(N(CC)CC)cc4oc3=O)nn2)NC1=O [compound 2]	–	–	–	–	labeled them with a high intensity

— PMC8708940, “Crossing of the Cystic Barriers of Toxoplasma gondii by the Fluorescent Coumarin Tetra-Cyclopeptide” (Molecules, 2021)
